In patent publication US11548899B2, “Fused 1,4-oxazepines and related analogs as BET bromodomain inhibitors” (THE REGENTS OF THE UNIVERSITY OF MICHIGAN, priority 2016, dated 2023):
Values joined by “and” are separate entries in the source; they are usually repeats but may differ in a detail not shown here. Equal entries are not always repeated. Where two headings read alike, the source gives them in different places.

What was measured:
RS4-11 = assay: Cell growth inhibition, 4-day proliferation assay, RS4-11; assay type: cell-based; conditions: 4 days incubation, RS4-11 cells, read-out: Cell Viability (IC50, μM) RS4-11
Procedure: (§1) The effect of representative Compounds of the Disclosure on cell viability was determined in a 4-day proliferation assay. Cells were maintained in the appropriate culture medium with 10% FBS at 37° C. and an atmosphere of 5% CO2. All the cell lines were used within three months of thawing fresh vials.
(§2) Cells were seeded in 96-well flat bottom (Corning COSTAR, Corning, N.Y., cat #3595) or white opaque cell culture plates (BD Falcon, cat #353296) at a density of 3,000-10,000 cells/well in 75 μl of culture medium. Compounds were serially diluted in the appropriate medium, and 75 μl of the diluted compounds were added to the appropriate wells of the cell plate. After the addition of compounds, the cells were incubated at 37° C. in an atmosphere of 5% CO2 for 4 days. Cell viability was determined using the CellTiter-Glo® Luminescent Cell Viability Assay Kit (Promega, Madison, Wis.) for leukemia cells and WST (2-(2-methoxy-4-nitrophenyl)-3-(4-nitrophenyl)-5-(2,4-disulfophenyl)-2H-tetrazolium, monosodium salt) Cell Counting-8 Kit (Dojindo Molecular Technologies, Inc., Rockville, Md.) for adhenrent cells according to the manufacturers' instructions. […]
(§3) For CellTiter-Glo assay (suspension cells), 100 μl of CellTiter-Glo® Reagent was added to each well, and then the plates were incubated at room temperature for 10-20 minutes. The luminescent signal was measured using a Tecan Infinite M1000 multimode microplate reader (Tecan, Morrisville, N.C.). The readings were normalized to the DMSO-treated cells and the IC50 was calculated by nonlinear regression (four parameters sigmoid fitted with variable slope, least squares fit, and no constraint) analysis using the GraphPad Prism 5 software. See US 2014/0256706.

recombinant BRD4 BD1 = molecular target: T1, recombinant BRD4 BD1 (Homo sapiens, UniProt O60885); assay: Competitive fluorescence-polarization (FP) binding assay, BRD4 BD1; conditions: FP competitive binding; protein 10 nM, probe 1.5 nM; read-out: IC50 (nM) BRD4 BD1
T1 construct: recombinant BRD4 BD1 and BRD4 BD2 proteins
Procedure: Fluorescence Polarization (FP) competitive binding studies were carried out using a FAM labeled fluorescent probe, see Cpd. […] Equilibrium dissociation constants (Kd) values of the fluorescent probe to BRD4 BD1 and BD2 proteins were determined from protein saturation experiments by monitoring the total fluorescence polarization of mixtures composed with the fluorescent probe at a fixed concentration and proteins with increasing concentrations up to full saturation. […] Plates were incubated at room temperature for 30 minutes with gentle shaking to assure equilibrium.
The IC50 and Ki values of compounds were determined in a competitive binding experiment. […] Mixtures of 10 μl of the tested compounds in assay buffer with 40% Ethylene Glycol and 190 μl of preincubated protein/probe complex solution in the assay buffer (100 mM potassium phosphate, pH 6.5, 0.01% Triton X-100) were added into assay plates which were incubated at room temperature for 30 minutes with gentle shaking. Final concentrations of proteins were 10 and 6 nM in assays for BRD4 BD1 and BD2, respectively. […] FP values were measured as described above. IC50 values were determined by nonlinear regression fitting of the competition curves.

MOLM-13 = assay: Cell growth inhibition, 4-day proliferation assay, MOLM-13; assay type: cell-based; conditions: 4 days incubation, MOLM-13 cells, read-out: Cell Viability (IC50, μM) MOLM-13
Procedure: as §1, §2, §3

recombinant BRD4 BD2 = molecular target: T2, recombinant BRD4 BD2 (Homo sapiens, UniProt O60885); assay: Competitive fluorescence-polarization (FP) binding assay, BRD4 BD2; conditions: protein 6 nM, probe 1.5 nM
T2 construct: recombinant BRD4 BD1 and BRD4 BD2 proteins
Procedure: Fluorescence Polarization (FP) competitive binding studies were carried out using a FAM labeled fluorescent probe, see Cpd. […] Equilibrium dissociation constants (Kd) values of the fluorescent probe to BRD4 BD1 and BD2 proteins were determined from protein saturation experiments by monitoring the total fluorescence polarization of mixtures composed with the fluorescent probe at a fixed concentration and proteins with increasing concentrations up to full saturation. Serial dilutions of testing proteins were mixed with the fluorescent probe to a final volume of 200 μl in the assay buffer (100 mM phosphate buffer, pH=6.5, 0.01% Triton X-100 (Sigma, 282103) being added right before assays). Final fluorescent probe concentration was 1.5 nM for both proteins. Plates were incubated at room temperature for 30 minutes with gentle shaking to assure equilibrium. FP values in millipolarization units (mP) were measured using the Infinite M-1000 plate reader (Tecan U.S., Research Triangle Park, N.C.) in Microfluor 1 96-well, black, round-bottom plates (Thermo Scientific, Waltham, Mass.) at an excitation wavelength of 485 nm and an emission wavelength of 530 nm.
The IC50 and Ki values of compounds were determined in a competitive binding experiment. […] Mixtures of 10 μl of the tested compounds in assay buffer with 40% Ethylene Glycol and 190 μl of preincubated protein/probe complex solution in the assay buffer (100 mM potassium phosphate, pH 6.5, 0.01% Triton X-100) were added into assay plates which were incubated at room temperature for 30 minutes with gentle shaking. Final concentrations of proteins were 10 and 6 nM in assays for BRD4 BD1 and BD2, respectively. Final probe concentration is 1.5 nM in both assays. […] FP values were measured as described above. IC50 values were determined by nonlinear regression fitting of the competition curves.

| IC50 (RS4-11; Homo sapiens, RS4-11, 96 h) [µM] | IC50 (recombinant BRD4 BD1) | IC50 (MOLM-13; Homo sapiens, MOLM-13, 96 h) [µM] | IC50 (recombinant BRD4 BD2) | IC50 (RS4-11) [µM] | IC50 (MOLM-13) [µM] | Compound |
| --- | --- | --- | --- | --- | --- | --- |
| 2.7 | 531 nM and 751 nM | 2 | 102 nM and 111 nM |  |  | Cc1sc2c(c1Cc1ccccc1)CNCc1nnc(C)n1-2 [Cpd. No. 15, 3-benzyl-2,9-dimethyl-5,6-dihydro-4H-thieno[3,2-f][1,2,4]triazolo[4,3-a][1,4]diazepine] |
| 0.62 | 8.7 nM | 0.28 | 315 nM |  |  | Cc1nnc2n1-c1sc(C#Cc3ccc(N)nc3)c(Cc3ccccc3)c1COC2 [Cpd. No. 89, 5-((3-benzyl-9-methyl-4,6-dihydrothieno[2,3-e][1,2,4]triazolo[3,4-c][1,4]oxazepin-2-yl)ethynyl)pyridin-2-amine] |
| 1 | 99.6 nM and 93.8 nM | 1.1 | 125 nM and 120 nM |  | 0.81 | Cc1sc2c(c1Cc1ccccc1)COC(C)c1nnc(C)n1-2 (centres unmarked) [Cpd. No. 109, 3-benzyl-2,6,9-trimethyl-4H,6H-thieno[2,3-e][1,2,4]triazolo[3,4-c][1,4]oxazepine] |
| 3.5 | 634 nM | 3.8 | 2320 nM |  |  | Cc1nnc2n1-c1sc(C#N)c(Cc3ccccc3)c1COC2 [Cpd. No. 110, 3-benzyl-9-methyl-4H,6H-thieno[2,3-e][1,2,4]triazolo[3,4-c][1,4]oxazepine-2-carbonitrile] |

More lines, now with the values behind:

| Compound | IC50 (RS4-11; Homo sapiens, RS4-11, 96 h) [µM] | IC50 (recombinant BRD4 BD1) | IC50 (MOLM-13; Homo sapiens, MOLM-13, 96 h) [µM] | IC50 (recombinant BRD4 BD2) | IC50 (RS4-11) [µM] | IC50 (MOLM-13) [µM] |
| --- | --- | --- | --- | --- | --- | --- |
| Cc1sc2c(c1Nc1cc(C3CC3)nn1C)COCc1nnc(C)n1-2 [Cpd. No. 7, N-(3-cyclopropyl-1-methyl-H-pyrazol-5-yl)-2,9-dimethyl-4H,6H-thieno[2,3-e][1,2,4]triazolo[3,4-c][1,4]oxazepin-3-amine] | 4.2 | 171 nM and 311 nM | 2.8 | 1160 nM and 1260 nM |  |  |
| Cc1sc2c(c1Cc1ccccc1)CN(C(=O)OCc1ccccc1)[C@@H](C)c1nnc(C)n1-2 [Cpd. No. 12, benzyl (S)-3-benzyl-2,6,9-trimethyl-4H-thieno[3,2-f][1,2,4]triazolo[4,3-a][1,4]diazepine-5(6H)-carboxylate] | 4.7 | 371 nM | 4 | 328 nM and 379 nM |  |  |
| Cc1sc2c(c1Cc1ccccc1)CN(C(=O)OCc1ccccc1)Cc1nnc(C)n1-2 [Cpd. No. 14, benzyl 3-benzyl-2,9-dimethyl-4H-thieno[3,2-f][1,2,4]triazolo[4,3-a][1,4]diazepine-5(6H)-carboxylate] | 2.4 | 85 nM and 112 nM | 1.9 | 118 nM and 145 nM |  |  |
| Cc1nnc2n1-c1sc(C#Cc3cnn(C)c3)c(Cc3ccccc3)c1CO[C@H]2C [Cpd. No. 85, (S)-3-benzyl-6,9-dimethyl-2-((1-methyl-1H-pyrazol-4-yl)ethynyl)-4,6-dihydrothieno[2,3-e][1,2,4]triazolo[3,4-c][1,4]oxazepine] | 0.14 | 7.3 nM and 8.1 nM | 0.16 | 48.3 nM and 60.3 nM | 0.12 | 0.1 |
| Cc1sc2c(c1Cc1ccc(F)cc1)COCc1nnc(C)n1-2 [Cpd. No. 103, 3-(4-fluorobenzyl)-2,9-dimethyl-4H,6H-thieno[2,3-e][1,2,4]triazolo[3,4-c][1,4]oxazepine] | 1 | 115 nM and 70.4 nM | 1.1 | 213 nM | 0.95 | 0.67 |
